Tests used:
[1] = The drug is tested on Bacteroides finegoldii strain: DSM17565 for biotransformation. The drug concentrations were measured before and after a 12-h incubation by liquid-chromatography-coupled mass spectrometry (LC–MS); settings: 2 µM
[2] = The drug is tested on Bacteroides fragilis strain: HMW615 for biotransformation. The drug concentrations were measured before and after a 12-h incubation by liquid-chromatography-coupled mass spectrometry (LC–MS); settings: 2 µM
[3] = The drug is tested on Bacteroides sp. WH2 strain: WH2 for biotransformation. The drug concentrations were measured before and after a 12-h incubation by liquid-chromatography-coupled mass spectrometry (LC–MS); settings: bacteroides sp. wh2, 12 h, 2 µM
[4] = The drug is tested on Odoribacter splanchnicus strain: fecal isolate for biotransformation. The drug concentrations were measured before and after a 12-h incubation by liquid-chromatography-coupled mass spectrometry (LC–MS); settings: 2 µM
[5] = The drug is tested on Parabacteroides merdae strain: ATCC43184 for biotransformation. The drug concentrations were measured before and after a 12-h incubation by liquid-chromatography-coupled mass spectrometry (LC–MS); settings: 2 µM
[6] = The drug is tested on Anaerococcus hydrogenalis strain: DSM7454 for biotransformation. The drug concentrations were measured before and after a 12-h incubation by liquid-chromatography-coupled mass spectrometry (LC–MS); settings: 2 µM
[7] = The drug is tested on Blautia luti strain: DSM14534 for biotransformation. The drug concentrations were measured before and after a 12-h incubation by liquid-chromatography-coupled mass spectrometry (LC–MS); assay type: ADME; set-up: dose 2 uM, timepoint 0 vs 12 hours; settings: 2 µM
[8] = The drug is tested on Providencia stuartii strain: ATCC25827 for biotransformation. The drug concentrations were measured before and after a 12-h incubation by liquid-chromatography-coupled mass spectrometry (LC–MS); settings: 2 µM
[9] = bacteroides intestinalis, 12 h, 2 µM
Description: The drug is tested on Bacteroides intestinalis strain: DSM17393 for biotransformation. The drug concentrations were measured before and after a 12-h incubation by liquid-chromatography-coupled mass spectrometry (LC–MS)

[10] = bacteroides thetaiotaomicron, 12 h, 2 µM
Description: The drug is tested on Bacteroides thetaiotaomicron strain: 3731 for biotransformation. The drug concentrations were measured before and after a 12-h incubation by liquid-chromatography-coupled mass spectrometry (LC–MS)

[11] = parabacteroides distasonis, 12 h, 2 µM
Description: The drug is tested on Parabacteroides distasonis strain: ATCC8503 for biotransformation. The drug concentrations were measured before and after a 12-h incubation by liquid-chromatography-coupled mass spectrometry (LC–MS)

[12] = parabacteroides johnsonii, 12 h, 2 µM
Description: The drug is tested on Parabacteroides johnsonii strain: DSM18315 for biotransformation. The drug concentrations were measured before and after a 12-h incubation by liquid-chromatography-coupled mass spectrometry (LC–MS)

[13] = segatella copri, 12 h, 2 µM
Description: The drug is tested on Prevotella copri strain: DSM18205 for biotransformation. The drug concentrations were measured before and after a 12-h incubation by liquid-chromatography-coupled mass spectrometry (LC–MS)

[14] = akkermansia muciniphila, 12 h, 2 µM
Description: The drug is tested on Akkermansia muciniphila strain: ATCC BAA-835 for biotransformation. The drug concentrations were measured before and after a 12-h incubation by liquid-chromatography-coupled mass spectrometry (LC–MS)

[15] = The drug is tested on Bifidobacterium longum subsp. Infantis strain: CCUG52486 for biotransformation. The drug concentrations were measured before and after a 12-h incubation by liquid-chromatography-coupled mass spectrometry (LC–MS); settings: 2 µM
[16] = The drug is tested on Eubacterium ventriosum strain: ATCC27560 for biotransformation. The drug concentrations were measured before and after a 12-h incubation by liquid-chromatography-coupled mass spectrometry (LC–MS); assay type: ADME; set-up: dose 2 uM, timepoint 0 vs 12 hours; settings: 2 µM
[17] = The drug is tested on Ruminococcus lactaris strain: ATCC29176 for biotransformation. The drug concentrations were measured before and after a 12-h incubation by liquid-chromatography-coupled mass spectrometry (LC–MS); settings: 2 µM
[18] = anaerostipes sp., 12 h, 2 µM
Description: The drug is tested on Anaerostipes sp. strain: fecal isolate for biotransformation. The drug concentrations were measured before and after a 12-h incubation by liquid-chromatography-coupled mass spectrometry (LC–MS)

[19] = The drug is tested on Bacteroides caccae strain: ATCC43185 for biotransformation. The drug concentrations were measured before and after a 12-h incubation by liquid-chromatography-coupled mass spectrometry (LC–MS); settings: 2 µM
[20] = limosilactobacillus reuteri cf48-3a, 12 h, 2 µM
Description: The drug is tested on Lactobacillus reuteri CF48-3A strain: BEI HM-102 for biotransformation. The drug concentrations were measured before and after a 12-h incubation by liquid-chromatography-coupled mass spectrometry (LC–MS)

SMILES	Bacterial Biotransformation [1]	Bacterial Biotransformation [2]	Bacterial Biotransformation [3]	Bacterial Biotransformation [4]	Bacterial Biotransformation [5]	Bacterial Biotransformation [6]	Bacterial Biotransformation [7]	Bacterial Biotransformation [8]	Bacterial Biotransformation [9]	Bacterial Biotransformation [10]	Bacterial Biotransformation [11]	Bacterial Biotransformation [12]	Bacterial Biotransformation [13]	Bacterial Biotransformation [14]	Bacterial Biotransformation [15]	Bacterial Biotransformation [16]	Bacterial Biotransformation [17]	Bacterial Biotransformation [18]	Bacterial Biotransformation [19]	Bacterial Biotransformation [20]
O=P1(N(CCCl)CCCl)NCCCO1 (centres undefined) [CYCLOPHOSPHAMIDE ANHYDROUS]	Compound NOT metabolized	Compound metabolized	Compound NOT metabolized	Compound NOT metabolized	Compound NOT metabolized	Compound NOT metabolized	Compound NOT metabolized	Compound NOT metabolized	Compound NOT metabolized	Compound NOT metabolized	Compound NOT metabolized	Compound NOT metabolized	Compound NOT metabolized	Compound NOT metabolized	–	–	–	–	–	–
CCOc1cc(CC(=O)N[C@@H](CC(C)C)c2ccccc2N2CCCCC2)ccc1C(=O)O [REPAGLINIDE]	Compound metabolized	Compound metabolized	Compound NOT metabolized	Compound NOT metabolized	Compound NOT metabolized	Compound NOT metabolized	Compound NOT metabolized	Compound NOT metabolized	Compound metabolized	Compound NOT metabolized	Compound metabolized	Compound metabolized	Compound NOT metabolized	Compound NOT metabolized	Compound NOT metabolized	Compound NOT metabolized	Compound NOT metabolized	Compound NOT metabolized	–	–
C#C[C@]1(O)CC[C@H]2[C@@H]3CCC4=Cc5oncc5C[C@]4(C)[C@H]3CC[C@@]21C [DANAZOL]	Compound metabolized	Compound metabolized	Compound metabolized	Compound metabolized	Compound metabolized	Compound metabolized	Compound metabolized	Compound metabolized	Compound metabolized	Compound metabolized	Compound metabolized	Compound metabolized	Compound metabolized	Compound metabolized	Compound metabolized	Compound metabolized	Compound metabolized	Compound metabolized	Compound metabolized	–
CC(C(=O)O)c1ccc2c(c1)Cc1cccnc1O2 (centres undefined) [PRANOPROFEN]	Compound metabolized	Compound metabolized	Compound metabolized	Compound metabolized	Compound metabolized	Compound NOT metabolized	Compound NOT metabolized	Compound metabolized	Compound metabolized	Compound metabolized	Compound metabolized	Compound metabolized	Compound metabolized	Compound metabolized	Compound metabolized	Compound metabolized	Compound NOT metabolized	Compound NOT metabolized	Compound metabolized	–
CCc1oc2ccccc2c1C(=O)c1cc(Br)c(O)c(Br)c1 [BENZBROMARONE]	Compound NOT metabolized	Compound NOT metabolized	Compound NOT metabolized	Compound NOT metabolized	Compound NOT metabolized	Compound NOT metabolized	Compound NOT metabolized	Compound NOT metabolized	Compound NOT metabolized	Compound NOT metabolized	Compound NOT metabolized	Compound NOT metabolized	Compound NOT metabolized	Compound NOT metabolized	Compound NOT metabolized	Compound NOT metabolized	Compound NOT metabolized	Compound NOT metabolized	Compound NOT metabolized	–
CC(=O)SCC(Cc1ccccc1)C(=O)NCC(=O)OCc1ccccc1 (centres undefined) [RACECADOTRIL]	Compound metabolized	Compound metabolized	Compound metabolized	Compound metabolized	Compound metabolized	–	–	Compound NOT metabolized	Compound metabolized	Compound metabolized	Compound metabolized	Compound metabolized	Compound metabolized	Compound metabolized	Compound metabolized	Compound metabolized	Compound metabolized	Compound NOT metabolized	–	–
O=C(O)c1cc(/N=N/c2ccc(S(=O)(=O)Nc3ccccn3)cc2)ccc1O [SULFASALAZINE]	Compound metabolized	Compound metabolized	Compound metabolized	Compound metabolized	Compound metabolized	Compound metabolized	Compound metabolized	–	Compound metabolized	Compound metabolized	Compound metabolized	Compound metabolized	Compound metabolized	Compound metabolized	Compound metabolized	Compound metabolized	Compound metabolized	Compound metabolized	Compound metabolized	Compound metabolized

From ChEMBL document CHEMBL5303573, “Mapping human microbiome drug metabolism by gut bacteria and their genes” (Nature, 2019)
